Legend:
CD4+ CD25− T cells = assay: CD4+ T cell proliferation, CD25 upregulation, cytokine production and Th1/Th2/iTreg differentiation; assay type: cell-based, mouse
Method: The dose-response of HF on CD4+ T cell proliferation, activation (i.e. CD25 upregulation) and differentiation to Th1, Th2 and Th17 lineages were evaluated. Purified murine naïve CD4+ CD25− T cells were activated using anti-CD3 (0.3 μg/ml) and anti-CD28 (0.5 μg/ml) antibodies and varying amounts of HF was added to each T cell culture condition (1.25 nM-40 nM). CD4+ T cell proliferation was monitored by CFSE dilution on day 3-post activation and CD25 expression was evaluated by FACS staining 2 days after activation. For T cell differentiation experiments, naïve T cells were activated as above in the presence of Th1 (IL-12 (20 ng/ml) plus anti-IL-4 (10 μg/ml)), Th2 (IL-4 (50 ng/ml) plus anti-IFNγ (0.5 mg/ml)) or Th17 (TGFβ (3 ng/ml) plus IL-6 (30 ng/ml)) polarizing conditions plus titrating amounts of HF (1.25 nM-40 nM) or MAZ1310 (40 nM). The percentage of Th17 cells, (IL-17^+ IFNγ^−) was evaluated on day 3 following activation, whereas the abundance of Th1 cells (IFNγ^+ IL-4) and Th2 cells (IL-4^+ IFNγ^−) was determined 5 days following activation. All cytokine expression was determined by intracellular staining following PMA+Ionomycin+Brefeldin A re-stimulation and all data was normalized to control (MAZ1310)-treated cells. […] Biol., vol. 80:1-8 (2006).
Cytokines, antibodies and T cell culture: Purified CD4^+ CD25^− T cells were activated in vitro as previously described (I. M. Djuretic et al., Nat Immunol 8, 145 (2007)) using 0.3 μg/ml hamster anti-mouse CD3 (clone 145-2C11) (ATCC—Manassas, Va.) and 0.5 μg/ml hamster anti-mouse CD28 (BD Pharmingen, San Jose, Calif.). Activated cell cultures were differentiated using the following combinations of cytokines and antibodies: iTreg=recombinant human TGFβ1 (3 ng/ml; R&D systems, Minneapolis, Minn.), Th17βTGFβ1 (3 ng/ml) plus recombinant mouse IL-6 (30 ng/ml, R&D systems). Th1 and Th2 differentiation was performed as previously described. (I. M. Djuretic et al., Nat Immunol 8, 145 (2007)). Human IL-2 supernatant (National Cancer Institute) was used in culture at 0.01 U/ml and was added at 48 hours-post activation when T cells were split into tissue culture wells lacking CD3 and CD28 antibodies, with the exception of Th17 cultures that were maintained in the absence of IL-2. All reagents were added at the time of T cell activation and again at 48-hours post activation unless indicated otherwise. For some experiments, purified CD4^+ CD25^− T cells, CD8^+ T cells or B cells were labeled with 1 μM CFSE (Invitrogen) prior to activation in accordance with manufacturers instructions.
Detection of cytokine production: Cytokines secreted into media supernatant were measured using the mouse Th1/Th2 cytometric bead array (CBA, BD Pharmingen) in accordance with manufacturers instructions. […]

Jurkat T cells = assay: Apoptosis of Jurkat T cells (Annexin V / PI); assay type: cell-based; conditions: 100 nM HF, 30 hours
Method: The non-specific cytoxicity of HF in both normal and transformed T-cells at high doses was evaluated. Anti-CD3/anti-CD28 activated primary T cells were harvested 6 days after activation and cultured in the presence of IL-2 with or without HF (100 nM). As a positive control, some T cells were cultured without IL-2 to induce apoptosis (FIG. 3A). Jurkat T cells, a transformed T cell leukemia line, were cultured in complete medium with or without HF (100 nM) as indicated (FIG. 3B). Both primary and Jurkat T cells were cultured for 30 hours and programmed cell death, i.e. apoptosis, was determined by Annexin V staining and propidium iodide (PI) uptake and cells were analyzed by flow cytometry. The percent of apoptotic T cells at each time point was plotted and was defined as Annexin V^+ PI^−. […] In further experiments, titrating amounts of HF were added to primary T cells and apoptosis was determine as above at the indicated time points. At 100 nM HF, but not 30 nM or lower, generalized T-cell apoptosis was observed (FIG. 3C).

[1] = tested on: Asns, Gpt2, eIF4Ebp1 mRNA; assay: Quantitative real-time PCR of AAR-associated genes in T cells; assay type: cell-based, mouse; conditions: 10 nM HF, within 4 hours of T cell activation
Method: FIG. 12C is a graph depicting the results of quantitative real-time PCR performed on cDNA generated from resting naïve T cells (TN) or T cells activated for 4 hours in the presence of 10 nM MAZ1310 or 10 nM HF. Asns, Gpt2 or eIF4Ebp1 mRNA expression was normalized to Hprt levels and data are presented as mean values±SD in duplicate samples.
Quantitative real-time PCR: T cells were activated as described above, collected at the indicated times and pellets were flash-frozen in liquid nitrogen. Total RNA was obtained by RNeasy (Quiagen, Valencia, Calif.) column purification per manufacturers instructions. RORγt expression was determined after reverse transcription using the message sensor kit (Ambion, Austin, Tex.) per manufacturers instructions and taqman primers and probe as described elsewhere (I. Ivanov, et al., Cell 126, 1121, 2006). Sybrgreen quantitative real-time PCR was performed on T cell RNA samples following reverse transcription via SuperScript II first-strand cDNA synthesis kit (Invitrogen, Carlsbad, Calif.). All PCR data was collected on an iCycler thermal cycler (Biorad, Hercules, Calif.). Primer sequences used for detecting stress response genes are listed below.

[2] = tested on: Th17 differentiation of CD4+ CD25− T cells; assay: Th17 differentiation (IL-17+ IFNγ− cells) of T cells activated with TGFβ plus IL-6; assay type: cell-based; conditions: Mus musculus, T-cell, 96 h; murine CD4+ CD25− T cells, restimulation on day 4-5; ± 0.4 nM; read-out: IC50 of repression of Th17 differentiation (percentage of IL-17+ IFNγ− cells)
[3] = tested on: anti-CD3 activated human peripheral blood T cells; conditions: cited from earlier work
TSK mouse = conditions: 1 μg HF/mouse IP daily (McGaha et al.); cited from earlier work

O=C(CC1NCCCC1O)Cn1cnc2cc(Br)c(Cl)cc2c1=O (racemic) [HF, 7-bromo-6-chloro-3-[3-(3-hydroxy-2-piperidinyl)-2-oxopropyl]-4(3H)-quinazolinone]
concentration inducing general inhibition of T and B cell activation, proliferation and effector function (CD4+ CD25− T cells; CD4+ T cell, CD8+ T cell and B220+ B cell, listed as halofuginone): 20 to 40 nM | effect on T cell proliferation, CD25 upregulation or production of IL-2, TNF or IFNγ, in words (CD4+ CD25− T cells; low concentrations of HF (1-10 nM)): did not affect | effect on Th1, Th2 or iTreg differentiation (IFNγ, IL-4 or Foxp3 expression), in words (CD4+ CD25− T cells; low-dose HF): failed to modulate | apoptosis (Annexin V+ PI−) of Jurkat T cells, in words (Jurkat T cells): caused significant apoptosis | Asns, Gpt2, eIF4Ebp1 mRNA (qPCR), in words [1]: induced | IC50 [2]: 0.0036 µM | NFkB activation and T-cell secretion of cytokines, in words ([3]; 80 nM HF, crude preparation of primary T-cells (Leiba et al.)): broadly suppress NFkB activation and T-cell secretion of cytokines | IC50 ([3]; Lieba et al., read-out: concentration for 50% inhibition of cytokine secretion, NF-kB activation and p38 phosphorylation): 0.02 to 0.04 µM | skin thickness in TSK model, in words (TSK mouse): reduced skin thickness of a TSK mouse to that of a normal mouse | toxic effects in TSK model, in words (TSK mouse): no toxic effects

Reference: US20110212100A1, “METHODS FOR MODULATING DEVELOPMENT AND EXPANSION OF IL-17 EXPRESSING CELLS” (priority 2007, published 2011)
